Reference: ChEMBL document CHEMBL1140785, “Synthesis, biological evaluation and molecular modelling studies of novel ACD- and ABD-ring steroidomimetics as inhibitors of CYP17” (Bioorg Med Chem Lett, 2008)

Experiments:
[1] = biological target: T1, Steroid 17-alpha-hydroxylase/17,20 lyase (Homo sapiens, UniProt P05093); assay: Inhibition of human CYP17 expressed in Escherichia coli at 0.2 uM
T1 sequence (P05093 whole entry): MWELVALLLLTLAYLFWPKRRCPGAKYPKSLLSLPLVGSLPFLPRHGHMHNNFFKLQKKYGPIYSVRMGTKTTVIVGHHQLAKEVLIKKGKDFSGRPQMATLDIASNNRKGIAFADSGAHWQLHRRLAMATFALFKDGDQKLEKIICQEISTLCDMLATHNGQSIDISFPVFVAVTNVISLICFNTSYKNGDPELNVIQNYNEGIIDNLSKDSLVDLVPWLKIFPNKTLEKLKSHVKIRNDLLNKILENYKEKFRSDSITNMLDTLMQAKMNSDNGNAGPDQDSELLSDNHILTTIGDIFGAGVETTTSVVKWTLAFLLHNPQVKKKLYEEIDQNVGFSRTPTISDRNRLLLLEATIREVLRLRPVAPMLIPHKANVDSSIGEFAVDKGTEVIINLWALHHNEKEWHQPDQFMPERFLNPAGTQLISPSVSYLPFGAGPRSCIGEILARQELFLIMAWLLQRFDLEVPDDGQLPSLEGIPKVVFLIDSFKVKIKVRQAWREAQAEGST

[2] = biological target: T1, Steroid 17-alpha-hydroxylase/17,20 lyase; assay: Inhibition of human CYP17 expressed in Escherichia coli at 2 uM
CYP1A2 [3] = biological target: T2, CYP1A2 (Homo sapiens, UniProt P05177); assay: Inhibition of hepatic CYP1A2 at 1 uM; assay type: ADME
T2 sequence (P05177 whole entry): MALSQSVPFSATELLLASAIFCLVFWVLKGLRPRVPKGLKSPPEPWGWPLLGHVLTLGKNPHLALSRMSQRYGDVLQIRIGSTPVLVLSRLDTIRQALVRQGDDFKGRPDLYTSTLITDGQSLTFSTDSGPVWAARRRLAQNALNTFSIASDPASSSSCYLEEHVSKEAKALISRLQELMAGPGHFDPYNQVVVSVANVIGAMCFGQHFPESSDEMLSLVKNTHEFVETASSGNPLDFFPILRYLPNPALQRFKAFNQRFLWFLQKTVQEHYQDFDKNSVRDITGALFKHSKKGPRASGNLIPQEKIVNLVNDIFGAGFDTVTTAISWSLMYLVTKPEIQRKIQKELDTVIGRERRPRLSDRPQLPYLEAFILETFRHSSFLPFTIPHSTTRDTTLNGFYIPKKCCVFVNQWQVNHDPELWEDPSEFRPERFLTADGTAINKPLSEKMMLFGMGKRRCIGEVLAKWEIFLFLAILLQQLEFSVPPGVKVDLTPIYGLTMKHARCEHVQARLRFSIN

CYP1A2 [4] = biological target: T2, CYP1A2; assay: Inhibition of hepatic CYP1A2 at 10 uM; assay type: ADME
CYP2C9 [5] = biological target: T3, CYP2C9 (Homo sapiens, UniProt P11712); assay: Inhibition of hepatic CYP2C9 at 1 uM; assay type: ADME
CYP2C9 [6] = biological target: T3, CYP2C9; assay: Inhibition of hepatic CYP2C9 at 10 uM; assay type: ADME
CYP2C19 [7] = biological target: T4, CYP2C19 (Homo sapiens, UniProt P33261); assay: Inhibition of hepatic CYP2C19 at 1 uM; assay type: ADME
CYP2C19 [8] = biological target: T4, CYP2C19; assay: Inhibition of hepatic CYP2C19 at 10 uM; assay type: ADME
CYP3A4 [9] = biological target: T5, CYP3A4 (Homo sapiens, UniProt P08684); assay: Inhibition of hepatic CYP3A4 at 1 uM; assay type: ADME
CYP3A4 [10] = biological target: T5, CYP3A4; assay: Inhibition of hepatic CYP3A4 at 10 uM; assay type: ADME
CYP3A4 [11] = biological target: T5, CYP3A4; assay: Inhibition of hepatic recombinant CYP3A4 at 10 uM; assay type: ADME
CYP2D6 [12] = biological target: T6, CYP2D6 (Homo sapiens, UniProt P10635); assay: Inhibition of CYP2D6 at 10 uM; assay type: ADME
CYP2D6 [13] = biological target: T6, CYP2D6; assay: Inhibition of CYP2D6 at 1 uM; assay type: ADME
CYP11B1 [14] = biological target: T7, CYP11B1 (Homo sapiens, UniProt P15538); assay: Inhibition of human CYP11B1 expressed in V79Zh11B1 cells at 0.2 uM; assay type: cell-based, V79; settings: V79Zh11B1 cells expressing human CYP11B1
T7 sequence (P15538 whole entry): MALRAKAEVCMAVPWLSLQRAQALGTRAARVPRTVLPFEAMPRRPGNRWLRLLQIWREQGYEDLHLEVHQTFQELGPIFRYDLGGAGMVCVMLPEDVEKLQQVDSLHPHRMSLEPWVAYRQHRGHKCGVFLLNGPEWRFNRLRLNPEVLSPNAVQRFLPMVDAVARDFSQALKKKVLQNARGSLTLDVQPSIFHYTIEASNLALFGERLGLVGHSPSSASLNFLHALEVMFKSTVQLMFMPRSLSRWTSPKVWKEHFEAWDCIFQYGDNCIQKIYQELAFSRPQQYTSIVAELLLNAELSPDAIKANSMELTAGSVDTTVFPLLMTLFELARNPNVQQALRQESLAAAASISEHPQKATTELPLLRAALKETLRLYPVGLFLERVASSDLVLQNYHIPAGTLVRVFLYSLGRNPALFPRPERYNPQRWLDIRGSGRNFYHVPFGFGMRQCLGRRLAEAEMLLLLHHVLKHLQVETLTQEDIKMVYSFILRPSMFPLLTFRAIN

CYP11B1 [15] = biological target: T7, CYP11B1; assay: Inhibition of human CYP11B1 expressed in V79Zh11B1 cells at 2 uM; assay type: cell-based; settings: V79Zh11B1 cells expressing human CYP11B1
[16] = biological target: T1, Steroid 17-alpha-hydroxylase/17,20 lyase; assay: Inhibition of human CYP17 expressed in Escherichia coli

T5 sequence (P08684 whole entry): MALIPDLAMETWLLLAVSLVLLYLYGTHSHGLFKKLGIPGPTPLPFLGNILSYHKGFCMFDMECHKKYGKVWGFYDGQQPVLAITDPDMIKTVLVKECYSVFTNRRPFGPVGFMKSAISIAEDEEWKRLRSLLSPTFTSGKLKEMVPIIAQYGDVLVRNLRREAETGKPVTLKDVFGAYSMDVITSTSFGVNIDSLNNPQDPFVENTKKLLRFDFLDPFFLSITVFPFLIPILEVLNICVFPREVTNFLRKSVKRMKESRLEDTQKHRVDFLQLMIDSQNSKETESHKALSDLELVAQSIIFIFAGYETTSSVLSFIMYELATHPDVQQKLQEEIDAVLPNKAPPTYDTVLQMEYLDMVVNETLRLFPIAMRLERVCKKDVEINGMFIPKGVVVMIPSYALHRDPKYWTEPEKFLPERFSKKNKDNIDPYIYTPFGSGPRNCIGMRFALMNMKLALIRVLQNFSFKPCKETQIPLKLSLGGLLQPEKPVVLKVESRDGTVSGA
T4 sequence (P33261 whole entry): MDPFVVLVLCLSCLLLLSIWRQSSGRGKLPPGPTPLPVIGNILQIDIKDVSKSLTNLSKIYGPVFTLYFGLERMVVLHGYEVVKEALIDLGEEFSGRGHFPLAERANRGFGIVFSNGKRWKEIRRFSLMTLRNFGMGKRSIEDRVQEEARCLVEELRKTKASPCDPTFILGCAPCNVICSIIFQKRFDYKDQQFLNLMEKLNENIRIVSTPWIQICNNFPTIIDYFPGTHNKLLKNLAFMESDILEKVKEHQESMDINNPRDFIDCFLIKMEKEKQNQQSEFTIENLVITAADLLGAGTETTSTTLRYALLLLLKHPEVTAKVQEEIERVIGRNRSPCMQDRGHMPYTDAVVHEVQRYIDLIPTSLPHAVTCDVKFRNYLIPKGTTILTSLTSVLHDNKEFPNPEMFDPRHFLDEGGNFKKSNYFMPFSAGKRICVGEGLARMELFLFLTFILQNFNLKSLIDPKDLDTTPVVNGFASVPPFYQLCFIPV
T3 sequence (P11712 whole entry): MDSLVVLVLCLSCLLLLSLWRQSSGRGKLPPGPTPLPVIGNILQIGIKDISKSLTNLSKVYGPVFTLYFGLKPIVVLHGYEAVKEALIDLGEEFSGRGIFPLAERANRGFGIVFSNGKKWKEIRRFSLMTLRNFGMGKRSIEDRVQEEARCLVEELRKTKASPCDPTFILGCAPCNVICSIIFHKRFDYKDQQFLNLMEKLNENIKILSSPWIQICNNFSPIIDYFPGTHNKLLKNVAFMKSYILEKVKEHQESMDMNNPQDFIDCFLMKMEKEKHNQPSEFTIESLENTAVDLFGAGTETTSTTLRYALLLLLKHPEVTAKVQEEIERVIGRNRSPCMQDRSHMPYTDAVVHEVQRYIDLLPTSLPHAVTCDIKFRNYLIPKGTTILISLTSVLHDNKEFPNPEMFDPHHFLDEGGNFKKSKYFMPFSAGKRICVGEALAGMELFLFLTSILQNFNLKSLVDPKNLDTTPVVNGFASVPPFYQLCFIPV
T6 sequence (P10635 whole entry): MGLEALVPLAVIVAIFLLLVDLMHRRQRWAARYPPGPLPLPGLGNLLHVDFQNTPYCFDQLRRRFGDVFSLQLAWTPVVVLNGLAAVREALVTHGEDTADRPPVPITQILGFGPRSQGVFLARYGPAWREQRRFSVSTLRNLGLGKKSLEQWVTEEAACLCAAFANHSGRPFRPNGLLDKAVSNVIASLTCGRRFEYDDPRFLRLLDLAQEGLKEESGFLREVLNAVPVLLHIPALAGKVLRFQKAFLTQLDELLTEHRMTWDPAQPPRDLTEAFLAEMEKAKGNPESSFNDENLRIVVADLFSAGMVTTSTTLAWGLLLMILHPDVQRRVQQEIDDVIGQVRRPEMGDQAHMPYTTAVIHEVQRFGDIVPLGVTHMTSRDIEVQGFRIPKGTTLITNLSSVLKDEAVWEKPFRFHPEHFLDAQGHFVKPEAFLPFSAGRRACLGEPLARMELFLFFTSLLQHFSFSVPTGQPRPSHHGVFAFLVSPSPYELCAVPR

Q: What does the source list for `Fc1ccc(-c2ccc3c(-c4cccnc4)cccc3c2)cc1`?
A: inhibition at 0.2 µM [1]: 2%; inhibition at 2 µM [2]: 3%

Q: For `Oc1ccc2cc(-c3ccc(F)cc3)ccc2c1-c1cccnc1`, which inhibition at 0.2 µM [1] is on record?
A: 0%

Q: What about the inhibition at 2 µM [2] of the same compound?
A: 0%

Q: For `Fc1ccc(-c2ccc3cc(-c4cccnc4)ccc3c2)cc1`, which inhibition at 0.2 µM [1] is on record?
A: 0%

Q: And the inhibition at 2 µM [2]?
A: 22%

Q: Which results are given for `COc1ccc2cc(-c3ccc(F)cc3)ccc2c1Cn1ccnc1`?
A: inhibition at 0.2 µM [1]: 13%; inhibition at 2 µM [2]: 45%; inhibition at 1 µM (CYP1A2 [3]): 80%; inhibition at 10 µM (CYP1A2 [4]): 85%; inhibition at 1 µM (CYP2C9 [5]): 100%; inhibition at 10 µM (CYP2C9 [6]): 100%; inhibition at 1 µM (CYP2C19 [7]): 93%; inhibition at 10 µM (CYP2C19 [8]): 96%; inhibition at 1 µM (CYP3A4 [9]): 93%; inhibition at 10 µM (CYP3A4 [10]): 95%

Q: Which results are given for `Fc1ccc(-c2ccc3cc(Cn4ccnc4)ccc3c2)cc1`?
A: inhibition at 0.2 µM [1]: 3%; inhibition at 2 µM [2]: 14%

Q: Which results are given for `Cc1cc(F)ccc1-c1ccc2c(-c3cccnc3)cccc2c1`?
A: inhibition at 0.2 µM [1]: 3%; inhibition at 2 µM [2]: 3%

Q: How did the inhibition at 0.2 µM [1] turn out when `COc1ccc2cc(-c3cccnc3)ccc2c1-c1ccc(F)cc1` was run?
A: 0%

Q: And the inhibition at 2 µM [2]?
A: 1%

Q: With `COc1ccc2cc(-c3cccc(-c4ccncc4)c3)ccc2c1` as the compound, how does the inhibition at 0.2 µM [1] read?
A: 4%

Q: What about the inhibition at 2 µM [2] of the same compound?
A: 23%

Q: `Oc1ccc2cc(-c3cccc(-c4cccnc4)c3)ccc2c1` was tested. Which inhibition at 0.2 µM [1] did it give?
A: 0%

Q: What about the inhibition at 2 µM [2] of the same compound?
A: 8%

Q: Which results are given for `Oc1ccc2cc(-c3cccc(-c4ccncc4)c3)ccc2c1`?
A: inhibition at 0.2 µM [1]: 31%; inhibition at 2 µM [2]: 66%; inhibition at 10 µM (CYP3A4 [11]): 19%; inhibition at 10 µM (CYP2D6 [12]): 85%; inhibition at 1 µM (CYP2D6 [13]): 80%; inhibition at 0.2 µM (CYP11B1 [14]): 3%; inhibition at 2 µM (CYP11B1 [15]): 23%; inhibition at 1 µM (CYP1A2 [3]): 98%; inhibition at 10 µM (CYP1A2 [4]): 98%; inhibition at 1 µM (CYP2C9 [5]): 94%; inhibition at 10 µM (CYP2C9 [6]): 97%; inhibition at 1 µM (CYP2C19 [7]): 86%; inhibition at 10 µM (CYP2C19 [8]): 89%; inhibition at 1 µM (CYP3A4 [9]): 6%; inhibition at 10 µM (CYP3A4 [10]): 19%

Q: What does the source list for `Oc1ccc2cc(-c3ccc(Cn4ccnc4)cc3)ccc2c1`?
A: inhibition at 0.2 µM [1]: 24%; inhibition at 2 µM [2]: 61%

Q: How did the inhibition at 0.2 µM [1] turn out when `Fc1ccc(-c2cc(Cn3ccnc3)c3ccccc3c2)cc1` was run?
A: 9%

Q: What about the inhibition at 2 µM [2] of the same compound?
A: 50%

Q: For `COc1ccc2cc(-c3cccc(-c4cccnc4)c3)ccc2c1`, which inhibition at 0.2 µM [1] is on record?
A: 3%

Q: What about the inhibition at 2 µM [2] of the same compound?
A: 4%

Q: For `COc1ccc2cc(-c3cccc(Cn4ccnc4)c3)ccc2c1`, which inhibition at 0.2 µM [1] is on record?
A: 0%

Q: What about the inhibition at 2 µM [2] of the same compound?
A: 28%

Q: What about the inhibition at 1 µM (CYP1A2 [3]) of the same compound?
A: 96%

Q: And the inhibition at 10 µM (CYP1A2 [4])?
A: 97%

Q: And the inhibition at 1 µM (CYP2C9 [5])?
A: 97%

Q: What about the inhibition at 10 µM (CYP2C9 [6]) of the same compound?
A: 100%

Q: And the inhibition at 1 µM (CYP2C19 [7])?
A: 95%

Q: What about the inhibition at 10 µM (CYP2C19 [8]) of the same compound?
A: 97%

Q: What about the inhibition at 1 µM (CYP3A4 [9]) of the same compound?
A: 91%

Q: What about the inhibition at 10 µM (CYP3A4 [10]) of the same compound?
A: 96%

Q: With `Fc1ccc(-c2ccc3c(-c4ccncc4)cccc3c2)cc1` as the compound, how does the inhibition at 0.2 µM [1] read?
A: 1%

Q: What about the inhibition at 2 µM [2] of the same compound?
A: 28%

Q: For `Fc1ccc(-c2ccc3c(Cn4ccnc4)cccc3c2)cc1`, which inhibition at 0.2 µM [1] is on record?
A: 2%

Q: And the inhibition at 2 µM [2]?
A: 19%

Q: With `COc1ccc2cc(-c3ccc(F)cc3)ccc2c1-c1cccnc1` as the compound, how does the inhibition at 0.2 µM [1] read?
A: 6%

Q: What about the inhibition at 2 µM [2] of the same compound?
A: 7%

Q: What about the inhibition at 1 µM (CYP1A2 [3]) of the same compound?
A: 40%

Q: What about the inhibition at 10 µM (CYP1A2 [4]) of the same compound?
A: 87%

Q: What about the inhibition at 1 µM (CYP2C9 [5]) of the same compound?
A: 66%

Q: And the inhibition at 10 µM (CYP2C9 [6])?
A: 54%

Q: And the inhibition at 1 µM (CYP2C19 [7])?
A: 68%

Q: And the inhibition at 10 µM (CYP2C19 [8])?
A: 28%

Q: And the inhibition at 1 µM (CYP3A4 [9])?
A: 64%

Q: And the inhibition at 10 µM (CYP3A4 [10])?
A: 86%

Q: For `C[C@]12CC[C@H](O)CC1=CC[C@@H]1[C@@H]2CC[C@]2(C)C(c3cccnc3)=CC[C@@H]12` [ABIRATERONE], which IC50 [16] is on record?
A: 72 nM

Q: And the inhibition at 1 µM (CYP1A2 [3])?
A: 36%

Q: What about the inhibition at 10 µM (CYP1A2 [4]) of the same compound?
A: 53%

Q: And the inhibition at 1 µM (CYP2C9 [5])?
A: 17%

Q: What about the inhibition at 10 µM (CYP2C9 [6]) of the same compound?
A: 51%

Q: And the inhibition at 1 µM (CYP2C19 [7])?
A: 3%

Q: And the inhibition at 10 µM (CYP2C19 [8])?
A: 7%

Q: What about the inhibition at 1 µM (CYP3A4 [9]) of the same compound?
A: 7%

Q: And the inhibition at 10 µM (CYP3A4 [10])?
A: 7%

Q: Which inhibition at 1 µM (CYP1A2 [3]) does the source give for `CC(=O)N1CCN(c2ccc(OCC3COC(Cn4ccnc4)(c4ccc(Cl)cc4Cl)O3)cc2)CC1` (stereo not drawn) [KETOCONAZOLE] here?
A: 8%

Q: And the inhibition at 10 µM (CYP1A2 [4])?
A: 38%

Q: What about the inhibition at 1 µM (CYP2C9 [5]) of the same compound?
A: 21%

Q: What about the inhibition at 10 µM (CYP2C9 [6]) of the same compound?
A: 75%

Q: What about the inhibition at 1 µM (CYP2C19 [7]) of the same compound?
A: 24%

Q: And the inhibition at 10 µM (CYP2C19 [8])?
A: 1%

Q: And the inhibition at 1 µM (CYP3A4 [9])?
A: 1%

Q: What about the inhibition at 10 µM (CYP3A4 [10]) of the same compound?
A: 4%
